Experimental data as given in patent publication US7611832B2, “Human G protein-coupled receptor and modulators thereof for the treatment of ischemic heart disease and congestive heart failure” (Arena Pharmaceuticals, Inc., priority 2002, dated 2009).

Experiments:
RUP41 mRNA in NRVMs = test: Northern blot of RUP41 mRNA in NRVMs treated with hypertrophic agents; conditions: 24 hour treatment; PE 100 μM, PMA 100 nM, PGF2α 1 μM, NCS 10%
[1] = tested on: RUP41 transcript in neonatal rat ventricular myocytes (NRVMs); test: RT-PCR of RUP41 transcript in NRVMs treated with hypertrophic agents; format: cell-based; conditions: 24 hours after addition to media; phenylephrine 100 μM, newborn calf serum 10%
Method: Total RNA isolated from NRVMs as described above was used as a template for generation of reverse transcribed DNA (RT-DNA) using the RT for PCR kit (Becton Dickenson) according to manufacturers instructions. RUP41 expression was detected in RT-DNA samples by PCR. PCR conditions were 96° C. for 2 min, followed by 30 cycles of 96° C. for 30 sec, 55° C. for 30 sec, and 72° C. for 2 min, followed by 72° C. for 10 min. 20 μl of the reaction was loaded onto 1.5% agarose gel to analyze the RT-PCR products.

Molecule	RUP41 mRNA expression (Northern blot) (RUP41 mRNA in NRVMs)	RUP41 transcript levels (RT-PCR) [1]
CNC[C@H](O)c1cccc(O)c1 [phenylephrine]	decreased level	drop dramatically
CCCCCCCCCCCCCC(=O)O[C@@H]1[C@@H](C)[C@@]2(O)[C@@H](C=C(CO)C[C@]3(O)C(=O)C(C)=C[C@@H]23)[C@@H]2C(C)(C)[C@]12OC(C)=O [phorbol 12-myristate 13-acetate]	decreased level	
prostaglandin F2α	decreased level	
